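Interpolation was linear, between the two tested concentrations surrounding the appropriate level; five concentrations were tested over 48 hours in 96-well plates. TGI: concentration producing complete growth inhibition.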 Where a SMILES comes first, the peptide text is derived from it. The star is where a group is joined. Boc = CC(C)(C)OC(=O)*
Assays:
Experiment in all cases: NCI-60 cell line screen, 48 h
HCC-2998 colon = system: HCC-2998 colon
HCT-116 colon = system: HCT-116 colon
HOP-62 NSCLC = system: HOP-62 NSCLC
K-562 leukemia = system: K-562 leukemia
KM12 colon = system: KM12 colon
M14 melanoma = system: M14 melanoma
MALME-3M melanoma = system: MALME-3M melanoma
MDA-MB-435 = system: MDA-MB-435
NCI-H460 lung = system: NCI-H460 lung
OVCAR-3 ovarian = system: OVCAR-3 ovarian
OVCAR-4 ovarian = system: OVCAR-4 ovarian
RXF 393 renal = system: RXF 393 renal
SF-268 CNS = system: SF-268 CNS
SF-295 CNS = system: SF-295 CNS
SF-539 CNS = system: SF-539 CNS
SK-MEL-5 melanoma = system: SK-MEL-5 melanoma
SNB-19 CNS = system: SNB-19 CNS
TK-10 renal = system: TK-10 renal
UO-31 renal = system: UO-31 renal

Row | Compound | TGI (HCC-2998 colon) [µM] | TGI (HCT-116 colon) [µM] | TGI (HOP-62 NSCLC) [µM] | TGI (K-562 leukemia) [µM] | TGI (KM12 colon) [µM] | TGI (M14 melanoma) [µM] | TGI (MALME-3M melanoma) [µM] | TGI (MDA-MB-435) [µM] | TGI (NCI-H460 lung) [µM] | TGI (OVCAR-3 ovarian) [µM] | TGI (OVCAR-4 ovarian) [µM] | TGI (RXF 393 renal) [µM] | TGI (SF-268 CNS) [µM] | TGI (SF-295 CNS) [µM] | TGI (SF-539 CNS) [µM] | TGI (SK-MEL-5 melanoma) [µM] | TGI (SNB-19 CNS) [µM] | TGI (TK-10 renal) [µM] | TGI (UO-31 renal) [µM]
1 | CCOC(=O)NC(Nc1ccc(S(=O)(=O)Nc2ccc(OC)nn2)cc1)(C(F)(F)F)C(F)(F)F | > 100 | 44.5 | 59.6 | > 100 | > 100 | 50.4 | 40.2 | 35.8 | > 100 | 55.7 | > 100 | 34.8 | > 100 | > 100 | 36.5 | 32 | > 100 | 68.8 | > 100
2 | N#CC(c1ccccc1)N(CCc1ccccc1)C(=O)c1ccc(C(=O)N(CCc2ccccc2)C(C#N)c2ccccc2)cc1 (centres undefined) | 29.1 | 28.4 | – | 67.4 | > 100 | 79 | 39.3 | 58 | 37 | 47 | 64 | 61.3 | 55.2 | 51.9 | 42.6 | 27.2 | > 100 | 29.8 | 63.8
3 | CC(NC(=O)C1CCCN1C(=O)CNC(=O)OC(C)(C)C)C(=O)O (stereo not drawn) (Boc-Gly-Pro-Ala-OH; configuration not given here) | > 100 | – | > 100 | > 100 | > 100 | > 100 | > 100 | > 100 | > 100 | > 100 | – | > 100 | > 100 | > 100 | > 100 | > 100 | > 100 | > 100 | > 100
4 | O=C(NC(=O)c1ccccc1)OC(c1ccccc1)C1CO1 (centres undefined) | > 100 | > 100 | > 100 | > 100 | > 100 | > 100 | > 100 | > 100 | > 100 | > 100 | > 100 | > 100 | > 100 | > 100 | > 100 | > 100 | > 100 | > 100 | > 100
5 | COC(=O)CNC(=O)CNC(=O)CSc1nnc(COc2ccc(Cl)cc2)n1-c1ccccc1 | > 100 | > 100 | > 100 | > 100 | 47.3 | > 100 | 35.3 | 34.5 | > 100 | 37.6 | > 100 | 36.8 | 51.6 | > 100 | > 100 | 41 | > 100 | > 100 | 48.6
6 | O=S(=O)(O)c1ccc(Nc2ccnc3ccccc23)cc1 | > 100 | > 100 | > 100 | > 100 | > 100 | > 100 | > 100 | > 100 | – | – | > 100 | > 100 | > 100 | > 100 | > 100 | > 100 | > 100 | > 100 | > 100

Source: PubChem BioAssay (NCI)
